Test system: subjects with symptomatic Raynaud's Phenomenon (RP) secondary to Systemic Sclerosis (SSc)
Assay: Example 1 double-blind placebo-controlled study, ePRO diary efficacy on symptomatic RP attacks
Assay type: in vivo, human
Conditions: for Weekly Frequency of Symptomatic RP Attacks, Treatment comparison of change vs placebo, LS mean difference in change: ANCOVA, N = 17 per group, p 0.8498
From the text: This was a multicenter, double-blind, randomized, placebo-controlled study to provide an initial evaluation of the effect of iloprost on the symptomatic relief of RP attacks in subjects with SSc. As a pilot study, it was not powered to provide a definitive estimate of the effect of iloprost. Importantly, this study tested the feasibility of collecting the study endpoints and logistics of study operations that included, among other things, an electronic patient-reported outcomes (ePRO) diary for the evaluation of subject response to the treatment, as well as the infusion workflow for this multiday treatment. Subjects were allowed to continue receiving stable standard of care therapies for the management of symptomatic RP (e.g., calcium channel blockers, angiotensin-converting enzyme inhibitors, statins, fluoxetine, and low-dose acetylsalicylic acid) or may have participated without the use of background standard of care therapies.
The primary objective was to evaluate the efficacy of iloprost compared to placebo on the change in the weekly frequency of symptomatic Raynaud's Phenomenon (RP) attacks from baseline in subjects with symptomatic RP secondary to Systemic Sclerosis (SSc). The exploratory objectives were the following: • To evaluate the efficacy of iloprost compared to placebo on the severity of RP attack symptoms • To evaluate the efficacy of iloprost compared to placebo on the Raynaud's Condition Score • To evaluate the efficacy of iloprost compared to placebo on hand function as assessed by the Cochin Hand Function Scale (CHFS) • To evaluate the safety and tolerability of iloprost • To evaluate the efficacy of iloprost compared to placebo on symptomatic RP attack duration • To evaluate the efficacy of iloprost compared to placebo on the worst pain associated with symptomatic RP • To evaluate the efficacy of iloprost compared to placebo on the subject assessment of overall improvement in symptomatic RP • To evaluate the pharmacokinetics (PK) of iloprost in subjects with symptomatic RP secondary to SSc
The study consisted of an up to 30-day screening period during which subjects completed a daily ePRO diary to record information regarding all symptomatic RP attacks (e.g., severity of symptoms, duration, and hand function). […] The baseline ePRO diary completion period may have been extended beyond 10 days in order to accommodate the preferred Monday through Friday dosing schedule. The ePRO symptomatic RP attack data from this time period were used for the calculation of the baseline frequency of symptomatic RP attacks.
Subjects were randomized in a 1:1 ratio to iloprost injection for IV use or placebo. Randomization was stratified based on the use of phosphodiesterase inhibitors at screening. Study drug administration began on Day 1, and subjects received study drug for 5 consecutive days (e.g., Monday through Friday) as an IV infusion over 6 hours each day via a peripheral line (NovaCath™ Integrated IV Catheter System) or a peripherally inserted central catheter using an infusion pump.
On Day 1, study drug was initiated at a starting dose of 0.5 ng/kg/min, and dose increases occurred every 30 minutes (+5 minutes) in increments of 0.5 ng/kg/min up to 2.0 ng/kg/min or the individual tolerated dose. If dose-limiting adverse events (e.g., headache, flushing, jaw pain, myalgia, nausea, or vomiting) occurred that could not be tolerated by the subject, or if the subject experienced symptomatic hypotension, then the dose was reduced in a step-wise manner by 0.5 ng/kg/min every 30 minutes (+5 minutes) until a tolerated dose was determined or the infusion was stopped until the symptoms resolved at which point the study drug was reinitiated at a previously tolerated dose. If symptomatic hypotension or a dose-limiting adverse event occurred during administration of iloprost at the starting dose (i.e., 0.5 ng/kg/min), the infusion was reduced to 0.25 ng/kg/min. […]

CC#CCC(C)[C@H](O)/C=C/[C@@H]1[C@H]2C/C(=C/CCCC(=O)O)C[C@H]2C[C@H]1O (stereo partly drawn) [Iloprost, (5E)-5-[(3aS,4R,5R,6aS)-5-hydroxy-4-[(E,3S)-3-hydroxy-4-methyloct-1-en-6-ynyl]-3,3a,4,5,6,6a-hexahydro-1H-pentalen-2-ylidene]pentanoic acid]
Average Overall Severity of Symptomatic RP Attacks, Baseline, Mean (11-point NRS (0 to 10), before treatment, N = 17): 5.30 | Average Overall Severity of Symptomatic RP Attacks, Treatment comparison of change vs placebo, LS mean difference in change (11-point NRS, p 0.4409): −0.47 | Weekly Frequency of Symptomatic RP Attacks, Treatment comparison of change vs placebo, LS mean difference in change: −0.77 | Weekly Frequency of Symptomatic RP Attacks, Treatment comparison of change vs placebo, LS mean difference in change (listed as iloprost): not statistically significant | Exploratory endpoints (overall severity, Raynaud's Condition Score, weekly duration, worst symptoms, PGI-S and PGI-C): differences in the iloprost group compared to placebo (baseline to double-blind endpoint): not statistically significant | Weekly Frequency of Symptomatic RP Attacks, Treatment comparison of change vs placebo, LS mean difference in change (treatment effect) (subgroup Randomization Date After 3 Jun. 2019, p 0.7116): 2.04

— US12409184B2, “Iloprost compositions and formulations thereof” (BTG INTERNATIONAL INC., priority 2020, dated 2025)
